Active and inactive are the calls of the source. The rule behind the calls is not given here.

The values that follow come from ChEMBL document CHEMBL3102700, “Truncated norzoanthamine exhibiting similar collagen protection activity, toward a promising anti-osteoporotic drug” (Bioorg Med Chem Lett, 2014).

A short description of assay [1]: Collagen protection activity of the compound assessed as residual collagen level after 180 mins by Sirius red colorimetric assay.
The nature of assay [2]: Collagen protection activity of the compound assessed as residual collagen level at 10 uM after 180 mins by Sirius red colorimetric assay.
Assay [3] is described as follows: Collagen protection activity of the compound assessed as residual collagen level at 0.1 uM after 180 mins by Sirius red colorimetric assay.
Assay [4] is described as follows: Collagen protection activity of the compound assessed as residual collagen level at 1 uM after 180 mins by Sirius red colorimetric assay.

Take `COC(=O)C[C@@]1(C)[C@H]2C(=O)C[C@@H]3C(=O)C=C(C)C[C@H]3[C@]2(C)C=C2N3C[C@H]4C[C@H](C)C[C@]3(CC[C@]21C)O4`: the result in assay [1] was inactive.
On the same count and under the same terms, to `CC1=CC(=O)CCC1` belongs “inactive”.
In the case of `C[C@H]1C[C@@H]2CN3[C@](CC[C@@]4(C)[C@]5(C)CCC[C@]34OC(=O)C5)(C1)O2`, the Activity was 47.8% in assay [2], 40% in assay [3], “Dose-dependent effect” in assay [1] and 46.6% in assay [4].
As to `CC1=CC(=O)[C@H]2CC(=O)[C@H]3[C@@](C)(C[C@@]45OC(=O)C[C@]3(C)[C@]4(C)CC[C@]34C[C@@H](C)C[C@H](CN35)O4)[C@@H]2C1`, the Activity came to 45% in assay [2] and 40.4% in assay [4].
